Literature values as cited in patent US20120237563A1, “CONTROLLED-RELEASE FORMULATIONS OF […] AND USES THEREOF” (UNIVERSITY OF FLORIDA RESEARCH […]., priority 2009, published 2012).

Conditions: clinical studies

## COc1ccc(/C=C2\CCCN=C2c2cccnc2)c(OC)c1 [DMXBA, 3-(2,4-dimethoxybenzylidene)-anabaseine]
  Safety of large oral doses: without adverse effects
oral
  Half-life: two
